{"source": "patent US8163058B2", "about": "(Whitehurst Associates, Inc., priority 2009, dated 2012)", "origin": "cited, not measured here", "conditions": "prior art description"}
{"molecule": "CCCCNP(N)(N)=S", "note": "[NBPT, N-(n-butyl) thiophosphoric triamide]", "values": [{"measurement": "Hydrolytic stability", "result": "undergoes hydrolysis"}, {"measurement": "Thermal stability", "result": "thermally unstable"}]}
